Test results as given in US9943525B2, “Composition for reducing cell senescence comprising Rho-kinase inhibitor and use thereof” (Samsung Electronics Co., Ltd., priority 2014, dated 2018).
“Also recorded” adds a separate entry of the source.

Tests used:
[1] = test system: senescent myoblasts (passage 11); test: microscopic observation of cell number and shape; type: cell-based, Human; details: 4 weeks, FIG. 13; for numbers of cells: vs DMSO
Description: Myoblast cell lines (Human Skeletal Muscle Myoblasts, Lonza CC-2580 LOT:0000387550) were cultured in SkBM™-2 Basal Media (Lonza CC-3246) including an SkGM™-2 SingleQuots™ Kit (Lonza CC-3244) on plates coated with Collagen Type I (Greiner Bio One, 658950) in a 5% CO2 incubator at 37° C. Subculture was initiated when the cells were approximately 85% confluent in plates. Early subcultures were performed at a split ratio of 1:4, and later subcultures were performed at a split ratio of 1:2. When cell doubling time was 14 days, the cells were regarded as senescent myoblasts (cell passages 10 to 12).
Senescent cells were seeded on each well of a 6-well plate coated with Collagen Type I (Greiner Bio One, 657950) in a concentration of 2,000 cells/well. Senescent myoblasts (passage 11) were cultured in the presence of 5 μM of Y-27632, 5 μM of FASUDIL, and 0.5 μM of SR3677 for 4 weeks in a 5% CO2 incubator at 37° C. The culture media were changed at every 4 days with new culture media supplemented with 5 μM of Y-27632, 5 μM of FASUDIL, and 0.5 μM of SR3677. A negative control group was prepared in the same manner, except that 0.05 (v/v) % of DMSO was used.
FIG. 13 illustrates microscopic images of cells cultured in the presence of 5 μM of Y-27632, 5 μM of FASUDIL, and 0.5 μM of SR3677. In “a” of FIG. 13, a portion was selected and marked by a rectangle with a dashed line, and the selected portion was enlarged in a1 for closer examination of the cultured cells. In a1 of FIG. 13, a portion was selected, marked by a rectangle with a dashed line, enlarged in a2 for much closer examination of the cultured cells (Scale bar 20 μm).

[2] = test system: senescent fibroblasts (after 37 cell passages); test: cell cycle analysis (Muse Cell Cycle Kit); type: cell-based, human; details: 5 μM; 4 weeks; vs DMSO control; FIG. 4
Description: The senescent fibroblasts (after 37 cell passages) were cultured in culture media respectively supplemented with 5 μM of Y-27632 (A), 5 μM of FASUDIL (B), and 0.5 μM of SR3677 (C) for 4 weeks in a 5% CO2 incubator at 37° C. The culture media were changed with new culture media respectively supplemented with 5 μM of Y-27632, 5 μM of FASUDIL, and 0.5 μM of SR3677 at every 4 days. Cell cycles were measured using a Muse™ Cell Cycle Kit (MERCK Millipore, MCH100106) in accordance with manufacturer's manuals. Light having a wavelength of 488 nm was irradiated to the cells using a Muse™ Cell Analyzer (MERCK Millipore) and light emission at 520 nm was measured. The results were analyzed using Cell Quest 3.2 software (Beckton Dickinson). The control group was prepared in the same manner, except that 0.05 (v/v) % of DMSO was added thereto.

[3] = test system: wound tissue of old (19 months old) male C57BL/6J mice; test: immunohistochemistry and Masson's trichrome staining of wound tissue sections; type: in vivo, mouse; details: 10 μM in 30% Pluronic gel topical daily
Description: To further test whether ROCK inhibitor can promote cutaneous wound healing in old (19 months old) male mice (C57BL/6J mice), four full-thickness punch-biopsy wounds (8 mm in diameter)(four wound sites/mouse, five mice/group) were created on the dorsal skin of mouse, 0.5 mL 10 μM Y-27632 in 30% Pluronic gel (Pluronic F-127 Sigma, P2443-1KG) was applied to wounds every day, and then covered the wounds with Telfa sponges (Kendall Health Care, Mansfield, Mass., USA). DMSO was used as a control. All animal studies were reviewed and approved by the […] Animal Care and Use Committee of SKKU School of Medicine (SUSM). SUSM is an Association for Assessment and Accreditation of Laboratory Animal Care international accredited facility and abides by the Institute for Laboratory Animal Research guide. Wounds were photographed for 10 days. Immunohistochemistry analyses were performed on 5 μm paraffin embedded sections as described previously (Lin et. al., 2004. Developmental Biology 270, 474-486). Primary antibodies used for immunohistochemistry were mouse anti-α-smooth muscle actin (Sigma, F3777-2ML, 1:500), and mouse anti-PCNA (Santa Cruz Biotechnology, SC-56, 1:500). Secondary antibodies used for immunohistochemistry were EnVisionTM Detection System (DAKO, […]). Masson's trichrome staining was performed according to the manufacturer's instructions (Polysciences Inc., Warrington Pa., USA). An immunohistochemical analysis was carried out to investigate the mechanism underlying the wound-healing process. […] FIG. 24 represents an immunohistochemical experimental result showing that Y-27632 treatment plays an important role in wound healing in old mouse (19 months old). Wound tissue sections were also subjected to Masson's trichrome staining to assess collagen deposition in the cross-sectional area of remodeled tissue.

[4] = test system: full-thickness punch-biopsy wounds on the dorsal skin of old (19 months old) male C57BL/6J mice; test: cutaneous wound healing assay in aged mice; type: in vivo, mouse; details: 0.5 mL 10 μM in 30% Pluronic gel applied to wounds every day, FIG. 23
Description: To further test whether ROCK inhibitor can promote cutaneous wound healing in old (19 months old) male mice (C57BL/6J mice), four full-thickness punch-biopsy wounds (8 mm in diameter)(four wound sites/mouse, five mice/group) were created on the dorsal skin of mouse, 0.5 mL 10 μM Y-27632 in 30% Pluronic gel (Pluronic F-127 Sigma, P2443-1KG) was applied to wounds every day, and then covered the wounds with Telfa sponges (Kendall Health Care, Mansfield, Mass., USA). DMSO was used as a control. All animal studies were reviewed and approved by the […] Animal Care and Use Committee of SKKU School of Medicine (SUSM). SUSM is an Association for Assessment and Accreditation of Laboratory Animal Care international accredited facility and abides by the Institute for Laboratory Animal Research guide. Wounds were photographed for 10 days. Immunohistochemistry analyses were performed on 5 μm paraffin embedded sections as described previously (Lin et. al., 2004. Developmental Biology 270, 474-486). Primary antibodies used for immunohistochemistry were mouse anti-α-smooth muscle actin (Sigma, F3777-2ML, 1:500), and mouse anti-PCNA (Santa Cruz Biotechnology, SC-56, 1:500). Secondary antibodies used for immunohistochemistry were EnVisionTM Detection System (DAKO, […]). […]

| SMILES | cell shape ([1]; 5 μM) | numbers of cells ([1]; 5 μM) | number of cells in G0/G1 phases [2] | cell shape ([1]; 0.5 μM) | numbers of cells ([1]; 0.5 μM) | Masson's trichrome staining (collagen deposition) ([3]; DMSO: diffuse in granulation tissue, FIG. 24) | site of proliferation by PCNA immunolabeling ([3]; DMSO: selective proliferation in granulation tissue, FIG. 24) | α-SMA immunoreactivity in wound area ([3]; control: high in granulation tissue, FIG. 24) | collagen thickness ([3]; relative to DMSO, P<0.01, FIG. 25) | number of PCNA-positive cells in the epidermis ([3]; vs control group, P<0.01, FIG. 26) | wound healing (wound appearance) ([4]; day 10, DMSO-treated wounds still showed remnants of scabs) | wound healing process (wound size) ([4]; early points (days 3), vs DMSO, P<0.01) |
| --- | --- | --- | --- | --- | --- | --- | --- | --- | --- | --- | --- | --- |
| O=S(=O)(c1cccc2cnccc12)N1CCCNCC1 [FASUDIL, 5-(1,4-diazepane-1-sulfonyl)isoquinoline] | spindle shape generally found in young cells | greater than that of the control group | less than that of cells in S and G2/M phases | – | – | – | – | – | – | – | – | – |
| CN(C)CCOc1cc(-c2cn[nH]c2)ccc1NC(=O)C1COc2ccccc2O1 (stereo not drawn) [SR3677] | – | – | – | spindle shape generally found in young cells | greater than that of the control group | – | – | – | – | – | – | – |
| C[C@@H](N)[C@H]1CC[C@H](C(=O)Nc2ccncc2)CC1 [Y-27632, (1R,4R)-4-((R)-1-aminoethyl)-N-(pyridin-4-yl)cyclohexanecarboxamide] | spindle shape generally found in young cells | greater than that of the control group | less than that of cells in S and G2/M phases | – | – | strong in the dermis area | proliferation was observed in the supra basal area of epidermis | diffuse in the dermis and was correlated with the appearance of collagen fibers | increased; also recorded: more dense and thicker collagen | higher | near completion | markedly accelerated |
